Test results published in ChEMBL document CHEMBL5030568, “Design and Evaluation of Bispidine-Based SARS-CoV-2 Main Protease Inhibitors” (ACS Med Chem Lett, 2022).
pIC50: −log10 of the molar value.

How the values were obtained:
[1] = Inhibition of SARS coronavirus 2 3 main viral protease 3-chymotrypsin-like activity expressed in Escherichia coli using Dabcyl-VNSTLQSGLRK(FAM)MA as substrate measured by fluorescence intensity assay; design: species or system Severe acute respiratory syndrome coronavirus 2
[2] = test system: HEK-293T; test: Cytotoxicity against human HEK293T cells assessed as reduction in cell viability; format: cell-based

Compound | pIC50 [1] | pIC50 [2]
CC12CN(CC#N)CC(C)(CN(CC#N)C1)C2=O | 5.26 | < 3.15
Cn1nc(C(=O)N2CC3(C)CN(C(=O)c4cc(-c5cccs5)n(C)n4)CC(C)(C2)C3=O)cc1-c1cccs1 | 5.30 | 3.34
CCOC(=O)c1n[nH]cc1-n1cc(CN2CC3(C)CN(Cc4cn(-c5c[nH]nc5C(=O)OCC)nn4)CC(C)(C2)C3=O)nn1 | 4.79 | < 3.15
CC12CN(CCN(CC(=O)O)CC(=O)O)CC(C)(CN(CCN(C(=O)O)C(=O)O)C1)C2=O | 4.47 | 3.59
CC12CN(C(=O)/C=C/c3ccccc3)CC(C)(CN(C(=O)/C=C/c3ccccc3)C1)C2=O | 5.32 | < 3.00
CC12CN(C(=O)c3ccccc3)CC(C)(CN(C(=O)c3ccccc3)C1)C2=O | 5.48 | 3.16
Cn1nc(C(=O)N2CC3(C)CN(C(=O)c4cc(-c5ccccc5)n(C)n4)CC(C)(C2)C3=O)cc1-c1ccccc1 | 5.84 | < 3.05
CC(C)(C)OC(=O)Cn1cc(CN2CC3(C)CN(Cc4cn(CC(=O)OC(C)(C)C)nn4)CC(C)(C2)C3=O)nn1 | 5.69 | 3.33
Cn1nc(C(=O)N2CC3(C)CN(C(=O)c4nn(C)c5c4CCc4ccccc4-5)CC(C)(C2)C3=O)c2c1-c1ccccc1CC2 | 6.12 | < 3.10
Cn1nc(C(=O)N2CC3(C)CN(C(=O)c4nn(C)c5c4Cc4ccccc4-5)CC(C)(C2)C3=O)c2c1-c1ccccc1C2 | 4.89 | < 3.10
CC12CN(C(=O)c3cc(-c4ccccc4)n(-c4ccccc4)n3)CC(C)(CN(C(=O)c3cc(-c4ccccc4)n(-c4ccccc4)n3)C1)C2=O | 5.85 | < 3.15
CCOC(=O)c1cc(-n2cc(CN3CC4(C)CN(Cc5cn(-c6cc(C(=O)OCC)n[nH]6)nn5)CC(C)(C3)C4=O)nn2)[nH]n1 | 4.87 | 
Cc1cc(CN2CC3(C)CN(Cc4cc(C)no4)CC(C)(C2)C3=O)on1 | 5.28 | < 3.15
C#CCN1CC2(C)CN(CC#C)CC(C)(C1)C2=O | 5.06 | < 3.00
CC(C)Cc1ccc(C(C)C(=O)O)cc1 (stereo not given) [IBUPROFEN] | < 3.30 | 
CC12CN(CC(=O)O)CC(C)(CN(CC(=O)O)C1)C2=O | 5.15 | < 3.00
CC(C)(C)OC(=O)NCCn1cc(CN2CC3(C)CN(Cc4cn(CCNC(=O)OC(C)(C)C)nn4)CC(C)(C2)C3=O)nn1 | 6.08 | 3.39
CC12CN(Cc3ccccc3)CC(C)(CN(Cc3ccccc3)C1)C2=O | 6.05 | 3.44
CC12CN(C(=O)/C=C/c3ccccc3)CC(C)(CN(C(=O)/C=C/c3ccccc3)C1)C2 | 4.33 | 3.60
CC(=O)N1CC2(C)CN(C(C)=O)CC(C)(C1)C2=O | 4.73 | < 3.00
CC12CNCC(C)(CNC1)C2=O | 5.59 | < 3.00
C#CC(=O)N1CC2(C)CN(C(=O)C#C)CC(C)(C1)C2=O | 5.26 | 4.24
CC12CN(C(=O)OC(C)(C)C)CC(C)(CN(C(=O)OC(C)(C)C)C1)C2 | 4.75 | 3.52
CC12CN(Cc3cn(Cc4ccccc4)nn3)CC(C)(CN(Cc3cn(Cc4ccccc4)nn3)C1)C2=O | 5.66 | 3.25
CC(C)(C)OC(=O)N1CC2(C)CN(C(=O)OC(C)(C)C)CC(C)(C1)C2=O | 5.23 | < 3.00
C=CC(=O)N1CC2(C)CN(C(=O)C=C)CC(C)(C1)C2 | 4.00 | < 3.00
